Values after ≈ are worked out from the molar mass of the structure shown.
Tests used:
E. coli ATCC 25922 = test: Minimum Inhibitory Concentration (MIC) in LB media; format: cell-based, Escherichia coli; settings: for MIC: Escherichia coli, ATCC25922, LB Media
Text: (§1) The compounds of Formula I are of interest due to their potent antibacterial effects. The ability of the invention compounds disclosed herein to achieve an antibacterial effect may be evaluated with regard to their ability to inhibit the growth of bacterial species like Escherichia coli ATCC 25922, Staphylococcus aureus ATCC 29213, Klebsiella pneumoniae ATCC 13883, Acinetobacter baumannii ATCC 19606, Pseudomonas aurigenosa ATCC 27853, Enterococcus faecalis ATCC 29212 and Enterococcus faecalis ATCC 29212 using an assay based on the following Minimum Inhibitory Concentration (MIC) protocol:
(§2) The test bacteria are grown in Luria Bertani Broth (HIMEDIA M1245), 25 grams of the powder is dissolved in 1000 ml distilled water and sterilized by autoclaving at 15 lbs pressure (121° C.) for 20 minutes. The medium sterility is checked by incubating at 37° C. for a period of 48 h.
(§3) Bacterial cultures that are stored as glycerol stocks at −80° C. are sub cultured on LB agar plates to obtain isolated colonies. A single colony of each strain is cultured in LB broth. The cultures are incubated at 37° C., 200 rpm till they reach an optical density (OD at 600 nm) of 0.8 to 1. […] Test compounds are dissolved in dimethyl sulfoxide (DMSO) to a stock concentration of 4 mg/ml. A twofold dilution series of this DMSO stock is prepared in a 96 well V bottom microtitre plate from rows A to H. A 3 μL volume of these dilutions are transferred to a 96-well flat bottom microtitre assay plate. Controls to monitor the effects of DMSO and media sterility are included. Each well is inoculated with 150 μL of the above diluted culture. The plates are incubated at 37° C. overnight in a humidified incubator. The following morning, the plates are read using a Spectrophotometer at 600 nm wavelength. […] The antibacterial activity (MIC) determined against representative Gram positive (S. aureus, E. faecalis) and Gram negative (E. coli, P. aurigenosa, K. pneumoniae and A. baumannii) pathogen were reported Table 1.

S. aureus ATCC 29213 = test: Minimum Inhibitory Concentration (MIC) in LB media; format: cell-based, Staphylococcus aureus; settings: for MIC: Staphylococcus aureus, ATCC29213, LB Media; for Minimum Inhibitory Concentration S. aureus ATCC 29213: LB Media
Text: as §1, §2, §3

E. faecalis ATCC 29212 = test: Minimum Inhibitory Concentration (MIC) in LB media; format: cell-based, Enterococcus faecalis; settings: for MIC: Enterococcus faecalis, ATCC29212
Text: as §1, §2, §3

A. baumannii ATCC 19606 = test: Minimum Inhibitory Concentration (MIC) in LB media; format: cell-based, Acinetobacter baumannii; settings: for MIC: Acinetobacter baumannii, ATCC19606, LB Media; for Minimum Inhibitory Concentration A. baumannii ATCC 19606: LB Media
Text: as §1, §2, §3

E. coli DNA gyrase = E. coli DNA gyrase (Escherichia coli, UniProt P0AES4+P0AES6); test: biochemical; settings: supercoiling assay
E. coli topoisomerase IV = E. coli topoisomerase IV (Escherichia coli, UniProt P0AFI2+P20083); test: biochemical; settings: decatenation assay; read-out: E. coli Topo IV IC50
K. pneumoniae ATCC 13883 = test: Minimum Inhibitory Concentration (MIC) in LB media; format: cell-based, Klebsiella pneumoniae; settings: for MIC: Klebsiella pneumoniae, ATCC13883, LB Media
Text: as §1, §2, §3

P. aurigenosa ATCC 27853 = test: Minimum Inhibitory Concentration (MIC) in LB media; format: cell-based, Pseudomonas aurigenosa; settings: for MIC: Pseudomonas, ATCC27853, LB Media
Text: as §1, §2, §3

[1] = test system: P. aurigenosa (Pae) clinical strains; test: MIC50 and MIC90 studies using clinical strains (CLSI guidelines); format: cell-based
E. coli clinical strains = test: as above; format: cell-based
[2] = test system: K. pneumoniae (Kpn) clinical strains; test: as above; format: cell-based
[3] = test system: A. baumannii (Aba) clinical strains; test: as above; format: cell-based
[4] = Escherichia coli, E. coli, 201 strains
[5] = Klebsiella pneumoniae, Kpn, 211 strains
[6] = Acinetobacter baumannii, Aba, 169 strains

E. coli DNA gyrase, sequence (P0AES4 whole entry, one chain of several): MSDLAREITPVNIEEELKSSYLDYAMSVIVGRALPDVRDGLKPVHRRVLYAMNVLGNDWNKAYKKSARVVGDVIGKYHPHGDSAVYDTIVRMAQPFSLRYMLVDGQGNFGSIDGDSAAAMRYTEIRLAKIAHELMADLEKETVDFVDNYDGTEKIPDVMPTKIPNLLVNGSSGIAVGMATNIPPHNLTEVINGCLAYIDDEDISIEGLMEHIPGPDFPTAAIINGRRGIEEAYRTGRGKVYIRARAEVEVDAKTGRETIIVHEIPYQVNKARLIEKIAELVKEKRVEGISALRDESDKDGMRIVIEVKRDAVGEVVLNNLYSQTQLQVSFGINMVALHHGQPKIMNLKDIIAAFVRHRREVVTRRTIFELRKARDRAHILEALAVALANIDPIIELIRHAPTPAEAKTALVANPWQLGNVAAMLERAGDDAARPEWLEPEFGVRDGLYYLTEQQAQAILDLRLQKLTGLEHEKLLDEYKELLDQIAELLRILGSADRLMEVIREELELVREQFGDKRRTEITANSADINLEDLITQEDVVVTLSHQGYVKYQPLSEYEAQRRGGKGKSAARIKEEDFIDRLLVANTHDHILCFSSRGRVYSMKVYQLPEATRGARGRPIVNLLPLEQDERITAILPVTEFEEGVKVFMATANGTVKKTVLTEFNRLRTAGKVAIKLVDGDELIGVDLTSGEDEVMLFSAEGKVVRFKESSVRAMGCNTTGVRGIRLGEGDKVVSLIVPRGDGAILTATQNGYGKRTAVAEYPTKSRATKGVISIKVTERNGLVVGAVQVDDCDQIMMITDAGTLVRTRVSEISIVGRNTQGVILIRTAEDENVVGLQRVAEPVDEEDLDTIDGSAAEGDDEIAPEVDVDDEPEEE
E. coli topoisomerase IV, sequence (P0AFI2 whole entry): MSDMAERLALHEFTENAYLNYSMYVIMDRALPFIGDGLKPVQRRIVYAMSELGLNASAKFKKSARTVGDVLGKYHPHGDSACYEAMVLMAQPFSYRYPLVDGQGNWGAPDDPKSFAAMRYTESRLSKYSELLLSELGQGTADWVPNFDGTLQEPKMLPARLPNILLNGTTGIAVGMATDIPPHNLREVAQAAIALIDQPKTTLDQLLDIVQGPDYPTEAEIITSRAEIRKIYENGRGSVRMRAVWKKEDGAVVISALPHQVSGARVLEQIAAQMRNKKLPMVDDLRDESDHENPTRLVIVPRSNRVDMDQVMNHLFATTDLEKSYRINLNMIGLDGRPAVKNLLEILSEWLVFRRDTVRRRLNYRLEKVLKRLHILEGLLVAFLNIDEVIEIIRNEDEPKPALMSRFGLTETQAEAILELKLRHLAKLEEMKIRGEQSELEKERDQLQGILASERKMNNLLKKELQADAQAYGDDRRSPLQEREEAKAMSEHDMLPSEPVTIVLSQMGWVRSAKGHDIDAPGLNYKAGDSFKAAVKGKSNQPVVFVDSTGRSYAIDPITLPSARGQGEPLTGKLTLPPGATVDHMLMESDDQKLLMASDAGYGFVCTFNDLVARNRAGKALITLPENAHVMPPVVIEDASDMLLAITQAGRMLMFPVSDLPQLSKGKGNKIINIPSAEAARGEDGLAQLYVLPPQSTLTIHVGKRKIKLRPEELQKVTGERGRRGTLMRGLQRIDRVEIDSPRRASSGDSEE
E. coli topoisomerase IV, sequence (P20083 whole entry): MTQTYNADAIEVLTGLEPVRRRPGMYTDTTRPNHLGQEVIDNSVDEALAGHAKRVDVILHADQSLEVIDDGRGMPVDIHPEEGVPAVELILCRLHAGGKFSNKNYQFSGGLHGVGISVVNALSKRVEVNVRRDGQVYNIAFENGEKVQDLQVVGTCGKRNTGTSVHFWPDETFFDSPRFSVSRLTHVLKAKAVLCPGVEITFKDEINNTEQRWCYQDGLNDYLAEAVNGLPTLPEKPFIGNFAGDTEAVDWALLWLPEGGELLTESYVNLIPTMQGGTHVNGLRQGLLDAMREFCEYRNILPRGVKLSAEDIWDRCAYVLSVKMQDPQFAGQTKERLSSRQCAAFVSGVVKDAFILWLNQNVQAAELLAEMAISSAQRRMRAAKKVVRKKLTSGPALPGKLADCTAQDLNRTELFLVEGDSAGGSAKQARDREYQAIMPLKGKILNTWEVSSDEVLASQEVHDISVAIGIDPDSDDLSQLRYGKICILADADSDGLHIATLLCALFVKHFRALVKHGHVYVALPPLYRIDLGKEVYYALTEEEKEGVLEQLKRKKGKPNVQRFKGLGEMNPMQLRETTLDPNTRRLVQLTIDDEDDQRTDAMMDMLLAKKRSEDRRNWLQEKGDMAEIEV

SMILES | MIC (E. coli ATCC 25922) [µg/mL] | MIC (S. aureus ATCC 29213) [µg/mL] | MIC (E. faecalis ATCC 29212) [µg/mL] | MIC (A. baumannii ATCC 19606) [µg/mL] | IC50 (E. coli DNA gyrase) [nM] | MIC (K. pneumoniae ATCC 13883) [µg/mL] | MIC (P. aurigenosa ATCC 27853) [µg/mL] | further results
CN1C(=O)Cc2ccc(F)c(CNCCCC3CN(c4ccc5c(n4)NC(=O)CO5)C(=O)O3)c21 (racemic) [Example 6, 6-(5-(3-(((6-fluoro-1-methyl-2-oxoindolin-7-yl)methyl)amino)propyl)-2-oxooxazolidin-3-yl)-2H-pyrido[3,2-b][1,4]oxazin-3(4H)-one] | 0.25 (≈ 0.533 µM) | 0.13 (≈ 0.277 µM) | 0.5 (≈ 1.07 µM) | 0.25 (≈ 0.533 µM) | 56 | 0.5 (≈ 1.07 µM) | 1 (≈ 2.13 µM) | IC50 (E. coli topoisomerase IV): 459 nM
CN1C(=O)Cc2ccc(F)c(CCNCCC3CN(c4ccc5c(n4)NC(=O)CO5)C(=O)O3)c21 (racemic) [Example 11, 6-(5-(2-((2-(6-fluoro-1-methyl-2-oxoindolin-7-yl)ethyl)amino)ethyl)-2-oxooxazolidin-3-yl)-2H-pyrido[3,2-b][1,4]oxazin-3(4H)-one] | 0.06 (≈ 0.128 µM) | 0.03 (≈ 0.0639 µM) | 0.13 (≈ 0.277 µM) | 0.03 (≈ 0.0639 µM) | 55 | 0.125 (≈ 0.266 µM) | 0.5 (≈ 1.07 µM) | 
CN1C(=O)Cc2ccc(F)c(CNCCCC3CN(c4ccc5c(n4)NC(=O)CO5)C(=O)O3)c21 (single isomer, unassigned) [Example 9, 6-(5-(3-(((6-fluoro-1-methyl-2-oxoindolin-7-yl)methyl)amino)propyl)-2-oxooxazolidin-3-yl)-2H-pyrido[3,2-b][1,4]oxazin-3(4H)-one] | 0.25 (≈ 0.533 µM) |  | 0.5 (≈ 1.07 µM) |  | 89 | 0.5 (≈ 1.07 µM) | 2 (≈ 4.26 µM) | Minimum Inhibitory Concentration S. aureus ATCC 29213 (S. aureus ATCC 29213): 0.13 µg/mL; Minimum Inhibitory Concentration A. baumannii ATCC 19606 (A. baumannii ATCC 19606): 0.125 µg/mL
CN1C(=O)Cc2ccc(F)c(CNCCCC3CN(c4ccc5c(n4)NC(=O)CO5)C(=O)O3)c21 (single isomer, unassigned) [Example 10, 6-(5-(3-(((6-fluoro-1-methyl-2-oxoindolin-7-yl)methyl)amino)propyl)-2-oxooxazolidin-3-yl)-2H-pyrido[3,2-b][1,4]oxazin-3(4H)-one] |  |  |  |  | 106 |  |  | Minimum Inhibitory Concentration E. coli ATCC 25922 (E. coli ATCC 25922; LB Media): 0.125 µg/mL; Minimum Inhibitory Concentration S. aureus ATCC 29213 (S. aureus ATCC 29213): 0.06 µg/mL; Minimum Inhibitory Concentration E. faecalis ATCC 29212 (E. faecalis ATCC 29212): 0.5 µg/mL; Minimum Inhibitory Concentration A. baumannii ATCC 19606 (A. baumannii ATCC 19606): 0.06 µg/mL; IC50 (E. coli topoisomerase IV): 398 nM; Minimum Inhibitory Concentration K. pneumoniae ATCC 13883 (K. pneumoniae ATCC 13883; LB Media): 0.25 µg/mL; Minimum Inhibitory Concentration P. aurigenosa ATCC 27853 (P. aurigenosa ATCC 27853; LB Media): 1 µg/mL
O=C(O)c1cn(C2CC2)c2cc(N3CCNCC3)c(F)cc2c1=O [Ciprofloxacin, reference compound] | 0.012 (≈ 0.0362 µM) | 0.4 (≈ 1.21 µM) | 0.4 (≈ 1.21 µM) | 0.4 (≈ 1.21 µM) |  | 0.05 (≈ 0.151 µM) | 0.1 (≈ 0.302 µM) | 
CN1C(=O)Cc2cccc(CNCCC3CN(c4ccc5c(n4)NC(=O)CO5)C(=O)O3)c21 (stereo not shown) [Example 1, 6-(5-(2-(((1-Methyl-2-oxoindolin-7-yl)methyl)amino)ethyl)-2-oxooxazolidin-3-yl)-2H-pyrido[3,2-b][1,4]oxazin-3(4H)-one] | 2.5 (≈ 5.71 µM) | 5 (≈ 11.4 µM) | 5 (≈ 11.4 µM) | 0.6 (≈ 1.37 µM) |  | 10 (≈ 22.9 µM) | 40 (≈ 91.4 µM) | 
CN1C(=O)Cc2ccc(F)c(CNCCC3CN(c4ccc5c(n4)NC(=O)CO5)C(=O)O3)c21 (stereo not shown) [Example 2, 6-(5-(2-(((6-Fluoro-1-methyl-2-oxoindolin-7-yl)methyl)amino)ethyl)-2-oxooxazolidin-3-yl)-2H-pyrido[3,2-b][1,4]oxazin-3(4H)-on] | 1.25 (≈ 2.74 µM) | 0.6 (≈ 1.32 µM) | 1.25 (≈ 2.74 µM) | 0.3 (≈ 0.659 µM) | 360 | 2.5 (≈ 5.49 µM) | 10 (≈ 22 µM) | 
CN1C(=O)Cc2ccc(F)c(CNCCC3CN(c4ccc5c(c4)NC(=O)CO5)C(=O)O3)c21 (stereo not shown) [Example 3, 6-(5-(2-(((6-fluoro-1-methyl-2-oxoindolin-7-yl)methyl)amino)ethyl)-2-oxooxazolidin-3-yl)-2H-benzo[b][1,4]oxazin-3(4H)-one] | 1.25 (≈ 2.75 µM) | 0.6 (≈ 1.32 µM) | 1.25 (≈ 2.75 µM) | 0.6 (≈ 1.32 µM) |  | 5 (≈ 11 µM) | 20 (≈ 44 µM) | 
CN1C(=O)C(C)(C)c2ccc(F)c(CNCCC3CN(c4ccc5c(n4)NC(=O)CO5)C(=O)O3)c21 (stereo not shown) [Example 4, 6-(5-(2-(((6-fluoro-1,3,3-trimethyl-2-oxoindolin-7-yl)methyl)amino)ethyl)-2-oxooxazolidin-3-yl)-2H-pyrido[3,2-b][1,4]oxazin-3(4H)-one] | > 80 | > 80 | > 80 | > 80 | 14000 | > 80 | > 80 | 
Cc1ncc(N2CC(CCNCc3c(F)ccc4c3N(C)C(=O)C4)OC2=O)cc1C#N (stereo not shown) [Example 5, 5-(5-(2-(((6-Fluoro-1-methyl-2-oxoindolin-7-yl)methyl)amino)ethyl)-2-oxooxazolidin-3-yl)-2-methylnicotinonitrile] | 80 (≈ 189 µM) | 80 (≈ 189 µM) | 80 (≈ 189 µM) | 40 (≈ 94.5 µM) |  | > 80 | > 80 | 
CCN1C(=O)Cc2ccc(F)c(CNCCC3CN(c4ccc5c(n4)NC(=O)CO5)C(=O)O3)c21 (stereo not shown) [Example 7, 6-(5-(2-(((1-Ethyl-6-fluoro-2-oxoindolin-7-yl)methyl)amino)ethyl)-2-oxooxazolidin-3-yl)-2H-pyrido[3,2-b][1,4]oxazin-3(4H)-one] | 1.25 (≈ 2.66 µM) | 0.15 (≈ 0.32 µM) | 0.6 (≈ 1.28 µM) | 0.3 (≈ 0.639 µM) |  | 5 (≈ 10.7 µM) | 20 (≈ 42.6 µM) | 
CN1C(=O)Cc2ccc(F)c(C(O)CNCCC3CN(c4ccc5c(n4)NC(=O)CO5)C(=O)O3)c21 (stereo not shown) [Example 15, 6-(5-(2-((2-(6-fluoro-1-methyl-2-oxoindolin-7-yl)-2-hydroxyethyl)amino)ethyl)-2-oxooxazolidin-3-yl)-2H-pyrido[3,2-b][1,4]oxazin-3(4H)-one] | 1 (≈ 2.06 µM) | 1 (≈ 2.06 µM) | 2 (≈ 4.12 µM) | 4 (≈ 8.24 µM) | 135 | 2 (≈ 4.12 µM) | 2 (≈ 4.12 µM) | 
Cn1c(=O)oc2ccc(F)c(CCNCCC3CN(c4ccc5c(n4)NC(=O)CO5)C(=O)O3)c21 (stereo not shown) [Example 16, 6-(5-(2-((2-(5-Fluoro-3-methyl-2-oxo-2,3-dihydrobenzo[d]oxazol-4-yl)ethyl)amino)ethyl)-2-oxooxazolidin-3-yl)-2H-pyrido[3,2-b][1,4]oxazin-3(4H)-one] | 0.5 (≈ 1.06 µM) | 4 (≈ 8.48 µM) | 4 (≈ 8.48 µM) | 0.5 (≈ 1.06 µM) |  | 1 (≈ 2.12 µM) | 4 (≈ 8.48 µM) | 
CN1C(=O)Cc2ncc(F)c(CNCCCC3CN(c4ccc5c(n4)NC(=O)CO5)C(=O)O3)c21 (stereo not shown) [Example 17, 6-(5-(3-(((6-Fluoro-1-methyl-2-oxo-2,3-dihydro-1H-pyrrolo[3,2-b]pyridin-7-yl)methyl)amino)propyl)-2-oxooxazolidin-3-yl)-2H-pyrido[3,2-b][1,4]oxazin-3(4H)-one] | 1 (≈ 2.13 µM) | 1 (≈ 2.13 µM) | 4 (≈ 8.5 µM) | 0.5 (≈ 1.06 µM) |  | 2 (≈ 4.25 µM) | > 16 | 
C[C@@H](O)[C@H]1C(=O)N2C(C(=O)O)=C(S[C@@H]3CN[C@H](C(=O)N(C)C)C3)[C@H](C)[C@H]12 [Meropenem, reference compound] |  |  |  |  |  |  |  | MIC ATCC27853 ([1]; Pae reference strain ATCC27853, unit inferred): 0.5 µg/mL (≈ 1.3 µM); MIC50 ([1]; Pae, 215 strains): 2 µg/mL (≈ 5.22 µM); MIC90 ([1]; Pae, 215 strains): 8 µg/mL (≈ 20.9 µM); Minimum (MIC) ([1]; Pae, 215 strains, unit not given, in µg/mL): 0.03; MIC ATCC25922 (E. coli clinical strains; E. coli reference strain ATCC25922, no unit in this row (MIC50/MIC90 rows: μg/ml)): 0.06 µg/mL (≈ 0.156 µM); Minimum (MIC) (E. coli clinical strains; E. coli, 201 strains, unit inferred): 0.03 µg/mL; MIC50 (E. coli clinical strains; [4]): 0.06 µg/mL (≈ 0.156 µM); MIC90 (E. coli clinical strains; [4]): 4 µg/mL (≈ 10.4 µM); MIC50 [2, 5]: 1 µg/mL (≈ 2.61 µM); MIC90 [2, 5]: 16 µg/mL (≈ 41.7 µM); MIC ATCC13883 ([2]; Kpn reference strain ATCC13883, unit inferred): 0.06 µg/mL (≈ 0.156 µM); Minimum (MIC) ([2]; Kpn, 211 strains, unit inferred): 0.03 µg/mL; MIC ATCC19606 ([3]; Aba reference strain ATCC19606, unit inferred): 0.5 µg/mL (≈ 1.3 µM); Minimum (MIC) ([3]; Aba, 169 strains, unit not given, in µg/mL): 0.03125; MIC50 [3, 6]: 8 µg/mL (≈ 20.9 µM); MIC90 [3, 6]: 32 µg/mL (≈ 83.4 µM)

Source: patent publication US10711011B2, “Substituted oxazolidines as anti-bacterial agents” (BUGWORKS RESEARCH, INC., priority 2016, dated 2020)
